Measurements taken from ChEMBL document CHEMBL5303573, “Mapping human microbiome drug metabolism by gut bacteria and their genes” (Nature, 2019).

Assays:
[1] = The drug is tested on Bifidobacterium ruminantium strain: fecal isolate for biotransformation. The drug concentrations were measured before and after a 12-h incubation by liquid-chromatography-coupled mass spectrometry (LC–MS); conditions: 2 µM
[2] = The drug is tested on Eggerthella lenta strain: ATCC25559 for biotransformation. The drug concentrations were measured before and after a 12-h incubation by liquid-chromatography-coupled mass spectrometry (LC–MS); conditions: 2 µM
[3] = The drug is tested on Alistipes indistinctus strain: DSM22520 for biotransformation. The drug concentrations were measured before and after a 12-h incubation by liquid-chromatography-coupled mass spectrometry (LC–MS); conditions: 2 µM
[4] = The drug is tested on Bacteroides coprophilus strain: DSM18228 for biotransformation. The drug concentrations were measured before and after a 12-h incubation by liquid-chromatography-coupled mass spectrometry (LC–MS); conditions: 2 µM
[5] = The drug is tested on Bacteroides dorei strain: DSM17855 for biotransformation. The drug concentrations were measured before and after a 12-h incubation by liquid-chromatography-coupled mass spectrometry (LC–MS); conditions: phocaeicola dorei, 2 µM
[6] = The drug is tested on Bacteroides finegoldii strain: DSM17565 for biotransformation. The drug concentrations were measured before and after a 12-h incubation by liquid-chromatography-coupled mass spectrometry (LC–MS); conditions: 2 µM
[7] = The drug is tested on Bacteroides uniformis strain: ATCC8492 for biotransformation. The drug concentrations were measured before and after a 12-h incubation by liquid-chromatography-coupled mass spectrometry (LC–MS); conditions: 2 µM
[8] = The drug is tested on Anaerotruncus colihominis strain: DSM17241 for biotransformation. The drug concentrations were measured before and after a 12-h incubation by liquid-chromatography-coupled mass spectrometry (LC–MS); conditions: 2 µM
[9] = The drug is tested on Clostridium sp. strain: fecal isolate for biotransformation. The drug concentrations were measured before and after a 12-h incubation by liquid-chromatography-coupled mass spectrometry (LC–MS); conditions: 2 µM
[10] = The drug is tested on Enterococcus faecalis strain: V583 for biotransformation. The drug concentrations were measured before and after a 12-h incubation by liquid-chromatography-coupled mass spectrometry (LC–MS); conditions: 2 µM
[11] = The drug is tested on Subdoligranulum variabile strain: DSM15176 for biotransformation. The drug concentrations were measured before and after a 12-h incubation by liquid-chromatography-coupled mass spectrometry (LC–MS); conditions: 2 µM
[12] = bifidobacterium adolescentis, 12 h, 2 µM
Description: The drug is tested on Bifidobacterium adolescentis strain: ATCC 15703 for biotransformation. The drug concentrations were measured before and after a 12-h incubation by liquid-chromatography-coupled mass spectrometry (LC–MS)

[13] = parabacteroides distasonis, 12 h, 2 µM
Description: The drug is tested on Parabacteroides distasonis strain: ATCC8503 for biotransformation. The drug concentrations were measured before and after a 12-h incubation by liquid-chromatography-coupled mass spectrometry (LC–MS)

[14] = parabacteroides johnsonii, 12 h, 2 µM
Description: The drug is tested on Parabacteroides johnsonii strain: DSM18315 for biotransformation. The drug concentrations were measured before and after a 12-h incubation by liquid-chromatography-coupled mass spectrometry (LC–MS)

[15] = anaerostipes sp., 12 h, 2 µM
Description: The drug is tested on Anaerostipes sp. strain: fecal isolate for biotransformation. The drug concentrations were measured before and after a 12-h incubation by liquid-chromatography-coupled mass spectrometry (LC–MS)

[16] = The drug is tested on Bacteroides caccae strain: ATCC43185 for biotransformation. The drug concentrations were measured before and after a 12-h incubation by liquid-chromatography-coupled mass spectrometry (LC–MS); conditions: 2 µM
[17] = The drug is tested on Eubacterium rectale strain: ATCC33656 for biotransformation. The drug concentrations were measured before and after a 12-h incubation by liquid-chromatography-coupled mass spectrometry (LC–MS); conditions: agathobacter rectalis, 2 µM
[18] = roseburia intestinalis, 12 h, 2 µM
Description: The drug is tested on Roseburia intestinalis strain: L1-82 for biotransformation. The drug concentrations were measured before and after a 12-h incubation by liquid-chromatography-coupled mass spectrometry (LC–MS)

Structure (SMILES)	Bacterial Biotransformation [1]	Bacterial Biotransformation [2]	Bacterial Biotransformation [3]	Bacterial Biotransformation [4]	Bacterial Biotransformation [5]	Bacterial Biotransformation [6]	Bacterial Biotransformation [7]	Bacterial Biotransformation [8]	Bacterial Biotransformation [9]	Bacterial Biotransformation [10]	Bacterial Biotransformation [11]	Bacterial Biotransformation [12]	Bacterial Biotransformation [13]	Bacterial Biotransformation [14]	Bacterial Biotransformation [15]	Bacterial Biotransformation [16]	Bacterial Biotransformation [17]	Bacterial Biotransformation [18]
CCC(=O)NCC[C@@H]1CCc2ccc3c(c21)CCO3 [RAMELTEON]	Compound NOT metabolized	Compound NOT metabolized	Compound NOT metabolized	Compound NOT metabolized	Compound metabolized	Compound NOT metabolized	Compound metabolized	Compound NOT metabolized	Compound NOT metabolized	Compound NOT metabolized	Compound NOT metabolized	Compound NOT metabolized	Compound metabolized	Compound NOT metabolized	Compound NOT metabolized	–	–	–
CN(C)C(=O)C(CCN1CCC(O)(c2ccc(Cl)cc2)CC1)(c1ccccc1)c1ccccc1 [LOPERAMIDE]	–	Compound NOT metabolized	Compound metabolized	Compound metabolized	Compound metabolized	–	Compound metabolized	Compound NOT metabolized	Compound metabolized	Compound NOT metabolized	Compound NOT metabolized	Compound NOT metabolized	Compound metabolized	–	Compound NOT metabolized	Compound NOT metabolized	Compound NOT metabolized	Compound metabolized
